Reference: patent US9328060B2, “J-series prostaglandin-ethanolamides as novel therapeutics” (East Carolina University, priority 2013, dated 2016)

Experiments:
[1] = test system: tumorigenic keratinocytes (Jwf2); experiment: Apoptosis in tumorigenic keratinocytes (FIG. 14); format: cell-based; conditions: Jwf2, FIG. 14
[2] = biological target: T1, COX-2 (Mus musculus, UniProt Q05769); experiment: LC/MS of J-series PG-ethanolamides in culture medium of AEA-treated cells; format: cell-based; conditions: COX-2 overexpressing cells; for J-series PGs identified in AEA-treated cells: FIG. 6C
T1 construct: endogenous in cells; host or cells: JWF2 keratinocytes
T1 sequence (Q05769 18-604): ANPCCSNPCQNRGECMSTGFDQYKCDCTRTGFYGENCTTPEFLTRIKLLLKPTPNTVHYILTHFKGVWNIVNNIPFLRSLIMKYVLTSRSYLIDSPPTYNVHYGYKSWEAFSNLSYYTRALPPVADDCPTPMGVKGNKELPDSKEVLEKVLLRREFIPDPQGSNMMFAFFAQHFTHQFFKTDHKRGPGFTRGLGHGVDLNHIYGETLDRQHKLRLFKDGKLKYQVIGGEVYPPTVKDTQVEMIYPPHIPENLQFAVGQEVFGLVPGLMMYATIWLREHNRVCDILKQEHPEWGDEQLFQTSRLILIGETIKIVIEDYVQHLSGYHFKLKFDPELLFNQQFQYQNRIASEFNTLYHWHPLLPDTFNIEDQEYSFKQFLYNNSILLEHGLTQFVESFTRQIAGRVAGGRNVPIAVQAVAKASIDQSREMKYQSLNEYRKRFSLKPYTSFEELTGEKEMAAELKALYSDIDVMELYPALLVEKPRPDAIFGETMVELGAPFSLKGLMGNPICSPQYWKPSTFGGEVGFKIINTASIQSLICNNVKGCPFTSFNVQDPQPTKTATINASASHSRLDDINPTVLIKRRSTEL
Description: To identify the specific J-series PGs that are produced in AEA-treated cells that overexpress COX-2 we treated the cells with AEA, collected the culture medium and analyzed J-series PGs using LC/MS.
To determine the direct role of COX-2 in AEA-induced ER stress, the requirement of COX-2 for J-series PG-ethanolamide synthesis was assessed. Results are depicted in FIG. 9D.

[3] = test system: tumor cell; experiment: Tumor cell death (FIG. 7); format: cell-based; conditions: compared to 15d-PGJ
[4] = test system: tumor cells; experiment: Selective toxicity in tumor cells (FIG. 15); format: cell-based
[5] = test system: COX-2 overexpressing squamous carcinoma cell line JWF2; conditions: JWF2, background section; cited from earlier work
[6] = test system: CHOP10 expression and Caspase-3 cleavage; experiment: CHOP10 expression and caspase-3 cleavage (FIGS. 12, 13); format: cell-based
[7] = test system: H-PGDS and L-PGDS; experiment: AEA-induced PGD2 and PGJ2 production (FIG. 11); format: cell-based
[8] = test system: epidermal tumor; conditions: background section; cited from earlier work
[9] = test system: Lewis lung adenocarcinoma; conditions: oral administration, background section; cited from earlier work
[10] = test system: Tumorigenic JWF2 keratinocytes; experiment: MTS cell viability, tumorigenic JWF2 keratinocytes; format: cell-based; conditions: various concentrations, FIG. 1
Description: Tumorigenic JWF2 keratinocytes were treated with various concentrations of AEA and cell viability measured using MTS analysis. […] An interesting feature of tumorigenic keratinocytes is that they overexpress COX-2. However, non-tumorigenic keratinocytes contain low basal levels of COX-2. Therefore, the role of COX-2 in the cytotoxicity of AEA was examined.
JWF2 tumorigenic keratinocytes were treated with each of these prostaglandins and cell survival measured in MTS assays.

[11] = test system: HaCaT keratinocytes; conditions: low basal COX-2, background section; cited from earlier work
[12] = test system: non-tumorigenic HaCaT keratinocytes; experiment: MTS cell viability, non-tumorigenic HaCaT keratinocytes; format: cell-based; conditions: FIG. 1
[13] = test system: activated caspase-3; experiment: Apoptosis (activated caspase-3 staining) with or without COX-2; format: cell-based
Excerpt: Red staining indicates COX-2 while the green stain indicates activated caspase-3, a hallmark for apoptosis.

[14] = test system: eIF2a phosphorylation; experiment: ER stress (eIF2a phosphorylation staining) in HaCaT transfected with COX-2 or empty vector; format: cell-based; conditions: HaCaT transfected with COX-2, relative to empty vector transfected cells, FIG. 2
Description: Since it was determined that AEA-induced cell death required COX-2 we examined whether ER stress also required COX-2. In this experiment we utilized HaCaT keratinocytes which express low basal levels of COX-2. The cells were transfected with an empty vector (pcDNA6.1) or an expression vector containing COX-2. In FIG. 2 the red signal indicates COX-2 expression, green indicates P-eIF2a phosphorylation and the blue stains the nuclear membrane for orientation.

[15] = test system: D- and J-series PG synthesis; experiment: Prostaglandin synthesis in JWF2 cells by ELISA; format: cell-based; conditions: various concentrations of AEA, FIG. 6A
Description: To determine if D- and J-series PGs are synthesized endogenously, JWF2 cells were treated with various concentrations of AEA and prostaglandin synthesis measured using ELISA assays.

CCCCC/C=C/C=C1/C(=O)C=CC1C/C=C\CCCC(=O)NCCO (stereo not shown) [15d-PGJ-EA, 15-deoxy Δ^12,14-prostagladin J2-ethanolamide]
apoptosis [1]: induces apoptosis
relative abundance among J-series PG-EAs produced [2]: most abundant produced
J-series PGs identified in AEA-treated cells [2]: metabolic products of AEA
tumor cell death [3]: potent inducer of tumor cell death
toxicity, tumor cell selectivity [4]: selectively toxic in tumor cells

CCCCC[C@H](O)/C=C/[C@H]1C(=O)C[C@H](O)[C@@H]1C/C=C\CCCC(=O)NCCO [PGD2-EA]
cell death [5]: cytotoxic
CHOP10 expression ([6]; FIG. 13): increased
Cl-Casp3 expression ([6]; FIG. 13): increased

CCCCCC(O)CC=C1C(=O)C=CC1CC=CCCCC(=O)NCCO (stereo not shown) [D12-PGJ-EA]
J-series PGs identified in AEA-treated cells [2]: metabolic products of AEA

Cl[Se](Cl)(Cl)Cl [SeCL4]
AEA-induced PGD2 production [7]: reversed
AEA-induced PGJ2 production [7]: reversed
AEA-induced CHOP10 expression ([6]; FIG. 12): inhibited
AEA-induced Caspase-3 cleavage ([6]; indicator of apoptosis, FIG. 12): inhibited

Cc1c(C(=O)c2cccc3ccccc23)c2cccc3c2n1[C@H](CN1CCOCC1)CO3 [WIN-55, 212-2]
epidermal tumor growth [8]: blocked

CCCCCC(O)C=CC1C(=O)C=CC1CC=CCCCC(=O)NCCO (stereo not shown) [PGJ-EA]
J-series PGs identified in AEA-treated cells [2]: metabolic products of AEA

CCCCC[C@H](O)/C=C/[C@H]1C(=O)C=C[C@@H]1C/C=C\CCCC(=O)O [PGJ2]
cell death [5]: inducers of cell death

CCCCCc1cc(O)c2c(c1)OC(C)(C)[C@@H]1CCC(C)=C[C@@H]21 [Δ^9-THC, Δ^9-tetrahydrocannabinol]
Lewis lung adenocarcinoma growth [9]: reduce Lewis lung adenocarcinoma growth

CCCCC[C@H](O)/C=C/[C@H]1C(=O)C[C@H](O)[C@@H]1C/C=C\CCCC(=O)O [PGD2]
cell death [5]: cytotoxic

CCCCC/C=C\C/C=C\C/C=C\C/C=C\CCCC(=O)NCCO [AEA, arachidonoyl ethanolamide]
cell viability (MTS absorbance) [10]: concentration-dependent decline in tumor cell viability
cell death [11]: does not induce cell death
cell death [5]: induce cell death
cell viability (MTS absorbance) [12]: did not lead to a loss of viability
apoptosis (activated caspase-3) ([13]; cells with COX-2, FIG. 3): induced apoptosis
apoptosis (activated caspase-3) ([13]; in the absence of COX-2, FIG. 3): did not undergo apoptosis
eIF2a phosphorylation (ER stress) [14]: significant increase in eIF2a phosphorylation
D-series PG synthesis [15]: concentration-dependent increase
J-series PG synthesis [15]: concentration-dependent increase

CCCCC/C=C/C=C1/C(=O)C=C[C@@H]1C/C=C\CCCC(=O)O [15-deoxy Δ^12,14 PGJ2, 15-deoxy-Δ^12,14-Prostaglandin J2]
cell death [5]: inducers of cell death
